Here are results for seven molecules from PubChem BioAssay (NCI).

Each structure is given as a SMILES string.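 Following 48 hours of exposure in 96-well plates, responses at five concentrations were used to interpolate endpoints linearly. Here, GI50 denotes the concentration required for 50% inhibition of growth. TGI denotes the concentration required for complete inhibition of growth.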

What all share (experiment): NCI tumour cell line growth inhibition, 48 h
Test [1] deals with HS 578T breast.
Test [2] concerns SF-268 CNS.
The test system of test [3] is NCI/ADR-RES ovarian.
Test [4] deals with LOX IMVI melanoma.
Test [5] deals with HOP-92 NSCLC.
The test system of test [6] is HCT-116 colon.
Test [7] deals with U251 CNS.
In test [8] the test system is CCRF-CEM leukemia.
For test [9], the system named is SF-539 CNS.
The test system of test [10] is UO-31 renal.

As to `NS(=O)(=O)c1cccc(Nc2cc(-c3ccc(F)cc3)[nH]n2)c1`, the GI50 in test [1] was above 20.8 µM; in test [2], 18.6 µM; in [3], above 25 µM; in test [4], 20.7 µM; in test [5], above 25 µM; in test [6] it was 11.9 µM. In addition, the GI50 in test [7] is 16.5 µM; in [8], 23 µM; in [9], 15.1 µM; in [10], 14.6 µM. For the same molecule, the TGI in test [1], in test [2], in [3], in [4], in test [5] and in test [6] was above 25 µM each time. For the same molecule, the TGI in test [7], in [8], in test [9] and in test [10] was above 25 µM throughout.
In the case of `CN(N=O)c1ccc(/C=C/c2ccnc3ccccc23)cc1`, the TGI in [1], in test [2], in test [3], in test [4], in [5] and in test [6] was above 100 µM each time. Besides, the TGI in test [7], in [8], in [9] and in test [10] was above 100 µM in each case.
Regarding `COc1ccc2c(c1O)[C@@]13CCCC=C1[C@@H](C2)N(C)CC3`, the TGI in [1], in test [2], in [3], in [4], in [5] and in test [6] was above 100 µM throughout. Also, the TGI in [7], in [8] and in test [10] was above 100 µM each time.
For the molecule `COc1cc(/C=N\Nc2ccccc2)ccc1OC(=O)c1ccccc1`, the GI50 in [1] was 18 µM; in test [2] it was 4.54 µM; in test [3], 0.903 µM; in [4] it was 0.296 µM; in test [5] it was 12.2 µM; in [6], 5.76 µM. Further, the GI50 in [7] was 8.38 µM; in test [8], 2.44 µM; in test [9], 0.486 µM; in test [10], 0.792 µM. Moreover, the TGI in test [1] is above 100 µM; in [2], above 100 µM; in test [3], above 100 µM; in test [4] it was 4.57 µM; in test [5], above 89 µM; in [6] it was above 100 µM. In addition, the TGI in test [7] is 36.5 µM; in [8], above 100 µM; in [9], 2.22 µM; in [10], above 40.2 µM.
Consider `O=C1c2ccccc2-c2cn(Cc3ccccc3)c3cccc(c23)C1c1cccnc1` (centres undefined), for which the GI50 in [1] was 2.92 µM; in [2], 18.5 µM; in test [3] it was 1.97 µM; in [4], 2.76 µM; in test [5] it was 2.74 µM; in [6], 1.99 µM. The GI50 in test [8] is 2.62 µM; in test [9] it was 5.67 µM; in test [10], 5.2 µM. Besides, the TGI in [1] was 45 µM; in test [2] it was above 50 µM; in [3], above 50 µM; in [4], above 50 µM; in test [5], above 50 µM; in test [6], above 50 µM. In addition, the TGI in [8], in test [9] and in test [10] was above 50 µM throughout.
Turning to `O=C(CC1(O)C(=O)Nc2ccc(Cl)cc21)c1ccc(C(=O)NCC2CCC3(CC2)OOC2(CCCCC2)OO3)cc1` (centres undefined), the GI50 in test [1] is 3.44 µM; in test [2], 2.94 µM; in test [3], 11.8 µM; in [4], 0.301 µM; in [5], 0.509 µM; in [6], 2.71 µM. Besides, the GI50 is 1.64 µM in test [7], 1.22 µM in test [8] and 1.63 µM in test [9]. The TGI was above 28.2 µM in test [1]; 12.9 µM in [2]; 45.5 µM in test [3]; 8.85 µM in [4]; 2.08 µM in test [5]; 12.3 µM in [6]. In addition, the TGI was 3.39 µM in [7], 3.99 µM in [8] and 3.16 µM in test [9].
As for `COc1ccc2c(Cl)cc(NC(=S)Nc3ccccc3)nc2c1`, the TGI in test [1] was found to be 37.3 µM; in test [2] it was 57.2 µM; in test [3], 54.1 µM; in test [4], 44 µM; in [5], 49.4 µM; in test [6] it was 49.1 µM. For the same molecule, the TGI in [7] was 36.4 µM; in test [8], 90.9 µM; in [9], above 100 µM.
